One test addresses T1, DPB1*04:01 (Homo sapiens, UniProt P04440).
T1 sequence (P04440 30-258): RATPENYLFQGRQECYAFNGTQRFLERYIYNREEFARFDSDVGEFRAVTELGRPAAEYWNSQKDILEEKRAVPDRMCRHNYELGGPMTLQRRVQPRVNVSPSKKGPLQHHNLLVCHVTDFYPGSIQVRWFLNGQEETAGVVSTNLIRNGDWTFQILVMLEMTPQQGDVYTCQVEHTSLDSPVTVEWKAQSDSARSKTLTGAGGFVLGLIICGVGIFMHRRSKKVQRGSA
T1 sequence (P20036 29-260 partner): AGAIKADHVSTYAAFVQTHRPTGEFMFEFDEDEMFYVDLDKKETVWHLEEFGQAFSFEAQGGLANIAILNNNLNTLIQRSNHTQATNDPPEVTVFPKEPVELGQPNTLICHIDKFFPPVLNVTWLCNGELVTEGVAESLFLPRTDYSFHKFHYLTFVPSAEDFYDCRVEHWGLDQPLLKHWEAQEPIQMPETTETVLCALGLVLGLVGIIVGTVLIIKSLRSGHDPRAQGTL
The test can be described thus: competition binding assay, purified HLA DPB1*04:01.

The next test concerns the target T2, DPB1*05:01 (Homo sapiens, UniProt P04440+P20036, A65V/A84E/F191V/F64L/G113D/G114E/K142R/L158P/M116V/M62Q/P115A/Q81R/R125K/T114A/T199I/T259P/V234M).
T2 sequence (P20036 29-260 M62Q/Q81R/T114A/K142R/L158P/F191V/T259P): T1 sequence (P20036 29-260 partner) with M34Q, Q53R, T86A, K114R, L130P, F163V, T231P
T2 sequence (P04440 30-258 F64L/A65V/A84E/G113D/G114E/P115A/M116V/R125K/T199I/V234M): T1 sequence (P04440 30-258) with F35L, A36V, A55E, G84D, G85E, P86A, M87V, R96K, T170I, V205M
As to the kind of experiment: competition binding assay, purified HLA DPB1*05:01.

For the next test, the target named is DRB1*12:01 (Homo sapiens, UniProt P01903+P01911, A100R/A169T/D57E/D86V/F55L/H45Y/K41T/L162R/M171V/P40S/Q125H/Q178H/Q39Y/Q99D/R42G/S66L/T262R/V114A/V67L/W38E/Y59H/Y61H/Y89S). The test can be described thus: competition binding assay, purified HLA DRB1*12:01.
A further test has as its target DRB1*13:02 (Homo sapiens, UniProt P01903+P01911, A100E/A169T/K41T/L162R/M171V/P40S/Q125H/Q178H/Q39Y/Q99D/R42S/S66N/T262R/V115G/W38E/Y61H). The test can be described thus: competition binding assay, purified HLA DRB1*13:02.
A further test addresses DRB1*15:01 (Homo sapiens, UniProt P01903+P01911). The test can be described thus: competition binding assay, purified HLA DRB1*15:01.
The target in another test is DRB1*04:01 (Homo sapiens, UniProt P01903+P01911, A100K/A169T/F76Y/I96L/K127E/L162R/M171V/N62H/P40V/Q125Y/R42H/S133A/S149N/S66Y/V115G/V209L/W38E). As to the kind of experiment: competition binding assay, purified HLA DRB1*04:01. The following applies: radiolabeled peptide competition, nM.
A further test concerns the target DRB3*01:01 (Homo sapiens, UniProt P01903+P79483). The test can be described thus: competition binding assay, purified HLA DRB3*01:01. The settings on record: radiolabeled peptide competition, nM.
Setting [1] is: purified HLA, radiolabeled peptide competition, nM, read-out: binding to DRB1*12:01 (IC50).
Setting [2] is: purified HLA, radiolabeled peptide competition, nM, read-out: binding to DRB1*13:02 (IC50).

What is called IC50 is the concentration needed to halve the response being measured.

Substitutions are numbered along the chain they refer to. Like-named read-outs stand apart in the source and are kept apart here.

Take `CSCC[C@H](NC(=O)[C@H](CCC(=O)O)NC(=O)[C@H](Cc1ccc(O)cc1)NC(=O)[C@H](C)NC(=O)[C@H](CCC(=O)O)NC(=O)[C@H](CC(N)=O)NC(=O)[C@@H](N)CC(=O)O)C(=O)N1CCC[C@H]1C(=O)N[C@@H](CO)C(=O)N[C@@H](CCC(=O)O)C(=O)N[C@@H](CCC(=O)O)C(=O)NCC(=O)N[C@@H](Cc1ccc(O)cc1)C(=O)N[C@@H](CCC(N)=O)C(=O)N[C@@H](CC(=O)O)C(=O)O`: the IC50 at DPB1*04:01, on DPB1*05:01, on DRB1*12:01, on DRB1*13:02 and on DRB1*15:01 was over 10000 nM each time.
On to `CSCC[C@H](NC(=O)[C@H](CCC(=O)O)NC(=O)[C@H](Cc1ccc(O)cc1)NC(=O)[C@H](C)NC(=O)[C@H](CCC(=O)O)NC(=O)[C@H](CC(N)=O)NC(=O)[C@@H](N)CC(=O)O)C(=O)N1CCC[C@H]1C(=O)N[C@@H](COP(=O)(O)O)C(=O)N[C@@H](CCC(=O)O)C(=O)N[C@@H](CCC(=O)O)C(=O)NCC(=O)N[C@@H](Cc1ccc(O)cc1)C(=O)N[C@@H](CCC(N)=O)C(=O)N[C@@H](CC(=O)O)C(=O)O`, for which the IC50 was over 10000 nM on DPB1*04:01 (purified HLA, radiolabeled peptide competition, nM, read-out: binding to DPB1*04:01 (IC50)); over 10000 nM on DPB1*05:01 (purified HLA, radiolabeled peptide competition, nM, read-out: binding to DPB1*05:01 (IC50)); 9130 nM on DRB1*04:01; over 10000 nM at DRB1*12:01 (setting [1]); over 10000 nM at DRB1*13:02 (setting [2]); over 10000 nM at DRB1*15:01 (purified HLA, radiolabeled peptide competition, nM, read-out: binding to DRB1*15:01 (IC50)). For the same compound, at DRB3*01:01, the IC50 was determined as 9180 nM.
In the case of `CSCC[C@H](NC(=O)[C@@H](N)CCC(=O)O)C(=O)N1CCC[C@H]1C(=O)N[C@@H](COP(=O)(O)O)C(=O)N[C@@H](CCC(=O)O)C(=O)N[C@@H](CCC(=O)O)C(=O)NCC(=O)N[C@@H](Cc1ccc(O)cc1)C(=O)N[C@@H](CCC(N)=O)C(=O)N[C@@H](CC(=O)O)C(=O)N[C@@H](Cc1ccc(O)cc1)C(=O)N[C@@H](CCC(=O)O)C(=O)N1CCC[C@H]1C(=O)N[C@@H](CCC(=O)O)C(=O)N[C@@H](C)C(=O)O`, the IC50 at DPB1*04:01 is over 10000 nM; on DPB1*05:01, over 10000 nM; on DRB1*04:01, 4950 nM; at DRB1*12:01 (setting [1]), over 10000 nM; at DRB1*13:02 (setting [2]), over 10000 nM; on DRB3*01:01, over 10000 nM.

These data come from patent US20200095296A1, “USE OF PEPTIDES AS BIOMARKERS IN THE DIAGNOSIS, CONFIRMATION AND TREATMENT OF A NEUROLOGICAL DISORDER AND TCR AND/OR HLA IMMUNOPROFILING IN NEURODEGENERATIVE DISEASE” (THE TRUSTEES OF COLUMBIA UNIVERSITY IN THE CITY OF NEW YORK, priority 2017, published 2020).
